From ChEMBL document CHEMBL3421624, “Design and Synthesis of Antitumor Heck-Coupled Sclareol Analogues: Modulation of BH3 Family Members by SS-12 in Autophagy and Apoptotic Cell Death” (J Med Chem, 2015)
The source made the active and inactive calls. The calls are words filed in the database; no cut-off is given here.

Columns and labels:
[1] = tested on: CCRF S-180; experiment: Antitumor activity against mouse S180 solid tumor cells implanted in Swiss albino mouse assessed as tumor growth inhibition at 22 mg/kg, ip measured on day 13; assay type: functional; conditions: CCRF S-180, ip, 312 h, route intraperitoneal, read-out: TGI
[2] = tested on: Mus musculus; experiment: Toxicity in mouse S180 solid tumor cells implanted Swiss albino mouse assessed as mouse mortality at 22 mg/kg, ip measured on day 13; assay type: organism-based; design: dose 22 mg/kg, route intraperitoneal; conditions: in vivo
[3] = tested on: CCRF S-180; experiment: Antitumor activity against mouse S180 ascites cells implanted in Swiss albino mouse assessed as tumor growth inhibition at 22 mg/kg, ip measured on day 12; assay type: functional; conditions: CCRF S-180, ip, 288 h, route intraperitoneal, read-out: TGI
[4] = tested on: Mus musculus; experiment: Toxicity in mouse S180 ascites cells implanted Swiss albino mouse assessed as mouse mortality at 22 mg/kg, ip measured on day 13; assay type: organism-based; design: dose 22 mg/kg, route intraperitoneal; conditions: in vivo
[5] = tested on: PC-3; experiment: Induction of autophagy in human PC3 cells assessed as increase LC3 intracellular localization at 100 nM to 300 nM after 24 hrs by immunocytochemistry; assay type: functional, cell-based
[6] = tested on: PC-3; experiment: Induction of autophagy in human PC3 cells assessed as increase in conversion of LC3-I to LC3-II at 0.1 to 0.3 uM after 24 hrs by Western blotting method; assay type: functional, cell-based
[7] = tested on: PC-3; experiment: Induction of autophagy in human PC3 cells assessed as reduction in SQSTM1/P62 protein levels at 0.1 to 0.3 uM after 24 hrs by Western blotting method; assay type: functional, cell-based
[8] = tested on: PC-3; experiment: Induction of autophagy in human PC3 cells assessed as increase in Beclin-1 protein levels at 0.1 to 0.3 uM after 24 hrs by Western blotting method; assay type: functional, cell-based
[9] = tested on: PC-3; experiment: Inhibition of Akt S473 phosphorylation in human PC3 cells at 0.1 to 0.3 uM after 24 hrs by Western blotting method; assay type: cell-based
[10] = tested on: PC-3; experiment: Inhibition of Akt in human PC3 cells assessed as reduction in mTOR S2448 phosphorylation at 0.1 to 0.3 uM after 24 hrs by Western blotting method; assay type: cell-based
[11] = Effect on total Akt protein levels in human PC3 cells at 0.1 to 0.3 uM after 24 hrs by Western blotting method; assay type: ADME, cell-based; conditions: pc-3, 24 h
[12] = Effect on total mTOR protein levels in human PC3 cells at 0.1 to 0.3 uM after 24 hrs by Western blotting method; assay type: ADME, cell-based; conditions: pc-3, 24 h
[13] = Reduction in Bcl-2 protein expression in human PC3 cells at 0.1 to 0.3 uM after 24 hrs by Western blotting method; assay type: functional, cell-based; conditions: PC-3
[14] = Cytotoxicity against human PC3 cells after 48 hrs by MTT assay; assay type: functional, cell-based; conditions: PC-3, 48 h
[15] = tested on: A549; experiment: Cytotoxicity against human A549 cells after 48 hrs by MTT assay; assay type: functional, cell-based; conditions: A549, 48 h
[16] = tested on: HeLa; experiment: Cytotoxicity against human HeLa cells after 48 hrs by MTT assay; assay type: functional, cell-based
[17] = tested on: PC-3; experiment: Induction of autophagy in human PC3 cells assessed as acidic vesicular organelles formation at 100 to 300 nM after 24 hrs by acridine orange staining based fluorescence microscopy; assay type: functional, cell-based
[18] = tested on: PC-3; experiment: Induction of autophagy in human PC3 cells assessed as autophagosomes formation at 100 to 300 nM after 24 hrs by acridine orange staining based fluorescence microscopy; assay type: functional, cell-based
[19] = tested on: PC-3; experiment: Induction of apoptosis in human PC3 cells assessed as nuclear condensation at 100 to 300 nM after 24 hrs by DAPI staining assay; assay type: functional, cell-based
[20] = tested on: PC-3; experiment: Induction of apoptosis in human PC3 cells assessed as membrane blebbing at 100 to 300 nM after 24 hrs by DAPI staining assay; assay type: functional, cell-based
[21] = tested on: PC-3; experiment: Induction of autophagy in human PC3 cells at 100 to 300 nM after 24 hrs by MDC staining based fluorescence microscopy; assay type: functional, cell-based
[22] = tested on: PC-3; experiment: Induction of autophagy in human PC3 cells at 100 to 300 nM after 24 hrs by acridine orange staining based fluorescence microscopy; assay type: functional
[23] = tested on: PC-3; experiment: Induction of autophagy in human PC3 cells assessed as LC3 protein accumulation in autophagosomes after 24 hrs by fluorescence microscopy; assay type: functional, cell-based
[24] = tested on: PC-3; experiment: Induction of autophagy in human PC3 cells assessed as increase in punctate EGFP-LC3 pattern in autophagosomes at 100 nM to 300 nM after 24 hrs by fluorescence microscopy; assay type: functional, cell-based
[25] = tested on: PC-3; experiment: Induction of apoptosis in human PC3 cells assessed as caspase-3 cleavage at 0.1 to 0.3 uM after 24 hrs by Western blotting method; assay type: functional, cell-based
[26] = tested on: PC-3; experiment: Induction of apoptosis in human PC3 cells assessed as increase in Annexin-V positive cells at 0.1 to 0.3 uM after 24 hrs; assay type: functional, cell-based
[27] = tested on: PC-3; experiment: Induction of apoptosis in human PC3 cells assessed as caspase-3 cleavage at 300 nM after 24 hrs by Western blotting method; assay type: functional, cell-based
[28] = tested on: PC-3; experiment: Induction of autophagy in human PC3 cells at 300 nM pre-treated with 5 mM autophagy inhibitor 3-MA for 1 hr before compound exposure for 24 hrs by acridine orange staining based fluorescence microscopy; assay type: functional, cell-based
[29] = tested on: PC-3; experiment: Induction of autophagy in human PC3 cells at 300 nM pre-treated with 20 uM apoptosis inhibitor z-VAD-fmk for 1 hr before compound exposure for 24 hrs by acridine orange staining based fluorescence microscopy; assay type: functional, cell-based
[30] = tested on: PC-3; experiment: Induction of apoptosis in human PC3 cells at 300 nM pre-treated with 5 mM autophagy inhibitor 3-MA for 1 hr before compound exposure for 24 hrs by DAPI staining method; assay type: functional, cell-based
[31] = tested on: PC-3; experiment: Induction of apoptosis in human PC3 cells at 300 nM pre-treated with 20 uM apoptosis inhibitor z-VAD-fmk for 1 hr before compound exposure for 24 hrs by DAPI staining method; assay type: functional, cell-based
[32] = tested on: PC-3; experiment: Increase in autophagy in human PC3 cells at 300 nM pre-treated with 20 uM apoptosis inhibitor z-VAD-fmk for 1 hr before compound exposure for 24 hrs by acridine orange staining based fluorescence microscopy; assay type: functional, cell-based
[33] = tested on: PC-3; experiment: Increase in PARP-cleavage in human PC3 cells at 0.3 uM in presence of Beclin-1 siRNA after 24 hrs by immunoblotting method; assay type: functional, cell-based
[34] = tested on: PC-3; experiment: Induction of autophagy in human PC3 cells over-expressing Bcl-2 at 300 nM pre-treated with 20 uM apoptosis inhibitor z-VAD-fmk for 1 hr before compound exposure for 24 hrs by acridine orange staining based fluorescence microscopy; assay type: functional, cell-based
[35] = tested on: PC-3; experiment: Induction of apoptosis in human PC3 cells over-expressing Bcl-2 at 300 nM pre-treated with 20 uM apoptosis inhibitor z-VAD-fmk for 1 hr before compound exposure for 24 hrs by DAPI staining method; assay type: functional, cell-based
[36] = tested on: PC-3; experiment: Induction of autophagy in human PC3 cells over-expressing Bcl-2 at 300 nM pre-treated with 5 mM autophagy inhibitor 3-MA for 1 hr before compound exposure for 24 hrs by acridine orange staining based fluorescence microscopy; assay type: functional, cell-based
[37] = tested on: PC-3; experiment: Induction of autophagy in human PC3 cells over-expressing DS-Red-Beclin-1 at 300 nM pre-treated with 20 uM apoptosis inhibitor z-VAD-fmk for 1 hr before compound exposure for 24 hrs by acridine orange staining based fluorescence microscopy; assay type: functional, cell-based
[38] = tested on: CCRF S-180; experiment: Antitumor activity against mouse S180 solid tumor cells implanted in Swiss albino mouse assessed as tumor growth inhibition at 5 mg/kg, ip measured on day 13; assay type: functional; conditions: CCRF S-180, ip, 312 h, route intraperitoneal, read-out: TGI
[39] = tested on: CCRF S-180; experiment: Antitumor activity against mouse S180 solid tumor cells implanted in Swiss albino mouse assessed as tumor growth inhibition at 10 mg/kg, ip measured on day 13; assay type: functional; conditions: CCRF S-180, ip, 312 h, route intraperitoneal, read-out: TGI
[40] = tested on: Mus musculus; experiment: Toxicity in mouse S180 solid tumor cells implanted Swiss albino mouse assessed as mouse mortality at 5 mg/kg, ip measured on day 13; assay type: organism-based; design: dose 5 mg/kg, route intraperitoneal; conditions: in vivo
[41] = tested on: Mus musculus; experiment: Toxicity in mouse S180 solid tumor cells implanted Swiss albino mouse assessed as mouse mortality at 10 mg/kg, ip measured on day 13; assay type: organism-based; design: dose 10 mg/kg, route intraperitoneal; conditions: in vivo
[42] = tested on: CCRF S-180; experiment: Antitumor activity against mouse S180 ascites cells implanted in Swiss albino mouse assessed as tumor growth inhibition at 5 mg/kg, ip measured on day 12; assay type: functional; conditions: CCRF S-180, ip, 288 h, route intraperitoneal, read-out: TGI
[43] = tested on: CCRF S-180; experiment: Antitumor activity against mouse S180 ascites cells implanted in Swiss albino mouse assessed as tumor growth inhibition at 10 mg/kg, ip measured on day 12; assay type: functional; conditions: CCRF S-180, ip, 288 h, route intraperitoneal, read-out: TGI
[44] = tested on: Mus musculus; experiment: Toxicity in mouse S180 ascites cells implanted Swiss albino mouse assessed as mouse mortality at 5 mg/kg, ip measured on day 13; assay type: organism-based; design: dose 5 mg/kg, route intraperitoneal; conditions: in vivo
[45] = tested on: Mus musculus; experiment: Toxicity in mouse S180 ascites cells implanted Swiss albino mouse assessed as mouse mortality at 10 mg/kg, ip measured on day 13; assay type: organism-based; design: dose 10 mg/kg, route intraperitoneal; conditions: in vivo

With `O=c1[nH]cc(F)c(=O)[nH]1` [FLUOROURACIL] the inhibition in vivo at 22 mg/kg [1] was 52.5%, the Activity [2] was “Non-toxic” and the inhibition in vivo at 22 mg/kg [3] was 96.9%. For the same compound, the Activity [4] was “Non-toxic”.
For `CC1(C)CCC[C@]2(C)[C@@H](CC[C@@](C)(O)/C=C/c3ccc(F)cc3)[C@](C)(O)CC[C@@H]12`, the Activity [5] was “Active”, the Activity [6] was “Dose-dependent effect” and the Activity [7] was “Dose-dependent effect”. The Activity [8] was “Dose-dependent effect”, the inhibition [9] was “Active” and the inhibition [10] was “Active”. The Activity [11] was “Non-toxic”, the Activity [12] was “Non-toxic” and the Activity [13] was “Dose-dependent effect”. It also gave an IC50 [14] of 0.082 µM, an IC50 [15] of 3.1 µM and an IC50 [16] of 3.46 µM. For the same compound, the Activity [17] was “Active”, the Activity [18] was “Active” and the Activity [19] was “Active”. For the same compound, the Activity [20] was “Active”, the Activity [21] was “Active” and the Activity [22] was “Active”. The Activity [23] was “Active”, the Activity [24] was “Active” and the Activity [25] was “Active”. The Activity [26] was “Active”, the Activity [27] was “Active” and the Activity [28] was “inactive”. For the same compound, the Activity [29] was “inactive”, the Activity [30] was “inactive” and the Activity [31] was “inactive”. For the same compound, the Activity [32] was “Active”, the Activity [33] was “inactive” and the Activity [34] was “inactive”. The Activity [35] was “inactive”, the Activity [36] was “Active” and the Activity [37] was “Active”. For the same compound, the inhibition in vivo at 5 mg/kg [38] was 32.5%, the inhibition in vivo at 10 mg/kg [39] was 39.8% and the Activity [40] was “Non-toxic”. The Activity [41] was “Non-toxic”, the inhibition in vivo at 5 mg/kg [42] was 64.7% and the inhibition in vivo at 10 mg/kg [43] was 74.9%. The Activity [44] was “Non-toxic” and the Activity [45] was “Non-toxic”.
